In patent publication US5138061A, “Thioacylating reagents” (BioChem Pharma Inc., priority 1989, dated 1992):
No end group written: not given here.

Tested on: immature T-cell development (de novo antigens on T lymphocytes)
Experiment: T cell development in nude athymic mice (thymopentin vs 4-thiothymopentin)
Format: in vivo
Conditions: 20 micrograms per subject
Text: The incorporation of thioamide linkages at positions on the peptide backbone which are susceptible to degradation may be performed in order to increase the peptide's resistance to enzymatic digestion. This enhanced stability may afford greater biological activities to the peptides prolonged existence. For example, thymopentin, which is merely a biologically active fragment of the polypeptide thymopoietin, may be modified to elicit this response. […] A control group of nude athymic mice was administered 20 micrograms of thymopentin per subject according to well-known assay techniques. See, e.g., O. Archer, T. Pierce, B. Papermanter, and R. Good, "Reduced Antibody Response in Thymectomized Rabbits", Nature, 195, 191 (1962); D. Oscaba and J. Miller, "Evidence for a Humeral Thymus Factor Responsible for the Maturation of Immunological Faculty", Nature, 199, 653 (1963); P. Magrit, "T-Cell Development in Normal and Thymopentintreated Nude Mice", J. Exp. Med., 156, 1057 (1982). […]
The immunomodulatory action of thymopentin and 4-thiothymopentin on immature T-cell development by the expression of de novo antigens on T lymphocytes after daily subcutaneous injections for two weeks in four week old nude athymic mice was measured. […]

Substance: RKDVY [thymopentin]
- mean increase for the maturation of T cells and related immune responses: 43%
